In patent US7829572B2 (Pfizer Inc, priority 2006, dated 2010):

Biological target: T1, calcium receptor (CasR) (Homo sapiens, UniProt P41180)
T1 construct: expressed in transfected cells; host or cells: HEK 293
T1 sequence (P41180 20-1078): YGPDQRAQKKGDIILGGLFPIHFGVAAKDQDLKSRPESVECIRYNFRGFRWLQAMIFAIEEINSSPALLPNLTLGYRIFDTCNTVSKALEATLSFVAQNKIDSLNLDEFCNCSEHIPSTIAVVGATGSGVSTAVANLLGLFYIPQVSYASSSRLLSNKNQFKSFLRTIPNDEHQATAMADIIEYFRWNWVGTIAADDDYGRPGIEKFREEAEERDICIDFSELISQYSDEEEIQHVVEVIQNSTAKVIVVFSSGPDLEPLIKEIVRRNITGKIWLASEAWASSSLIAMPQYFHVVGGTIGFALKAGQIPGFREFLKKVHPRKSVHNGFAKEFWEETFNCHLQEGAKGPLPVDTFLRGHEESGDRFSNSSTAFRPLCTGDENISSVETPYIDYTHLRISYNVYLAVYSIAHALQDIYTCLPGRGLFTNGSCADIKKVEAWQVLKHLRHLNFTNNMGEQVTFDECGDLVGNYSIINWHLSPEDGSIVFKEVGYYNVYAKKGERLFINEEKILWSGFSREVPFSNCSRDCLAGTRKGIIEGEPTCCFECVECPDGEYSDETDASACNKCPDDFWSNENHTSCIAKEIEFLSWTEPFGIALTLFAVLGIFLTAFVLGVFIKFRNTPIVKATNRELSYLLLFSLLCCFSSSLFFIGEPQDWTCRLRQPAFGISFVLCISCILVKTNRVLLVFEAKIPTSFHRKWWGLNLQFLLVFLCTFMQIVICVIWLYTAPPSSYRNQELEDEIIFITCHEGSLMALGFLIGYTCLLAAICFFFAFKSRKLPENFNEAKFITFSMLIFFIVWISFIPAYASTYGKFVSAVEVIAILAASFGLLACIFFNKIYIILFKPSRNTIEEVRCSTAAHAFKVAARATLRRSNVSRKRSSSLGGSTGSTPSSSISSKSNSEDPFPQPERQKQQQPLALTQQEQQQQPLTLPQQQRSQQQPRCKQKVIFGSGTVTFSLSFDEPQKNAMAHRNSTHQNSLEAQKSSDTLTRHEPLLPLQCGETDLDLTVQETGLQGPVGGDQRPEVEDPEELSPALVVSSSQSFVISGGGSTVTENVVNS
Experiment: FLIPR Assay for Evaluating the Potency and Selectivity of Test Compounds
Type: cell-based
Settings: HEK 293 cells expressing CasR; 30 minutes pre-incubation; stimulation by 1.7 mM Ca2+; read 42 seconds after stimulation
Excerpt: FLIPR Assay for Evaluating the Potency and Selectivity of Test Compounds
Human kidney cell (HEK 293) expressing the calcium receptor (CasR) are used to detect antagonists of the receptor using Fluorometric imaging plate reader (FLIPR, Molecular Devices, Sunnyvale Calif.). Receptor activation by extracellular calcium results in the release of calcium from intracellular stores into the cytosol. A fluorescent indicator (Fluo-4) is internalized by the cells from growth media and interacts with calcium released into the cytosol to provide a means of quantifying intracellular Ca^2+ levels and receptor agonism/antagonism. Fluorescence intensity is detected by the FLIPR CCD camera and traced as a function of time. Potential antagonists are identified by their ability to decrease this fluorescent response.
Prior to the addition of test compound cells are washed with a 10 mM HEPES buffer solution. The test compound, for example the compound of Example 1, is added at various doses (from 1 µM to 3 nM) and pre-incubated with cells for 30 minutes followed by stimulation of the CasR by the addition of 1.7 mM Ca^2+. IC50 values are based on the ability of the cells to inhibit the Ca^2+ induced increase in intracellular Ca^2+. Fluorescence signal is read 42 seconds after the stimulation of the CasR by the addition of 1.7 mM Ca^2+.
The following table provides FLIPR IC50 data for the specified Examples. The IC50s are reported as micromolar concentration with n being the number of times the particular compound was assayed.

Row | Structure (SMILES) | IC50 [nM]
1 | O=c1c2c(C(F)(F)F)nccc2nc(-c2cccc(F)c2O)n1CCc1ccccc1 [Example 2, 2-(3-Fluoro-2-hydroxy-phenyl)-3-phenethyl-5-trifluoromethyl-3H-pyrido[4,3-d]pyrimidin-4-one] | 620
2 | O=c1c2c(C(F)(F)F)nccc2nc(-c2ncccc2O)n1CC1CCOCC1 [Example 67, 2-(3-hydroxypyridin-2-yl)-3-((tetrahydro-2H-pyran-4-yl)methyl)-5-(trifluoromethyl)pyrido[4,3-d]pyrimidin-4(3H)-one] | > 1000
3 | O=c1c2c(C(F)(F)F)nccc2nc(-c2ncccc2O)n1CCC1CCCCO1 (racemic) [Example 49, (R, S)-2-(3-hydroxypyridin-2-yl)-3-(2-(tetrahydro-2H-pyran-2-yl)ethyl)-5-(trifluoromethyl)pyrido[4,3-d]pyrimidin-4(3H)-one] | 480
4 | C[C@H](Cc1ccccc1)n1c(-c2ncccc2O)nc2ccnc(C(F)(F)F)c2c1=O [Example 5, (R)-2-(3-Hydroxy-pyridin-2-yl)-3-(1-methyl-2-phenyl-ethyl)-5-trifluoromethyl-3H-pyrido[4,3-d]pyrimidin-4-one] | 20
5 | O=c1c2c(C(F)(F)F)nccc2nc(-c2ccccc2C(F)(F)F)n1CCC1CCCCC1 [Example 81, 3-(2-cyclohexylethyl)-5-(trifluoromethyl)-2-(2-(trifluoromethyl)phenyl)pyrido[4,3-d]pyrimidin-] | 7890
6 | CS(=O)(=O)Nc1cccnc1-c1nc2ccnc(C(F)(F)F)c2c(=O)n1CCc1ccccc1 [Example 64, N-(2-(4-oxo-3-phenethyl-5-(trifluoromethyl)-3,4-dihydropyrido[4,3-d]pyrimidin-2-yl)pyridin-3-yl)methanesulfonamide] | 61800
7 | C[C@H](Cc1ccccc1)n1c(-c2ncc[nH]2)nc2ccnc(C(F)(F)F)c2c1=O [Example 51, (R)-2-(1H-imidazol-2-yl)-3-(1-phenylpropan-2-yl)-5-(trifluoromethyl)pyrido[4,3-d]pyrimidin-4(3H)-one] | 110
8 | O=c1c2c(N3CCNCC3)nccc2nc(-c2ccccc2O)n1CCc1ccccc1 [Example 20, 2-(2-Hydroxy-phenyl)-3-phenethyl-5-piperazin-1-yl-3H-pyrido[4,3-d]pyrimidin-4-one] | > 100000
9 | N#Cc1ccccc1-c1nc2ccnc(C(F)(F)F)c2c(=O)n1CCC1CCCCC1 [Example 62, 2-(3-(2-cyclohexylethyl)-4-oxo-5-(trifluoromethyl)-3,4-dihydropyrido[4,3-d]pyrimidin-2-yl)benzonitrile] | 4630
10 | CC(C)Nc1nccc2nc(-c3ccccc3O)n(CCc3ccccc3)c(=O)c12 [Example 17, 2-(2-Hydroxy-phenyl)-5-isopropylamino-3-phenethyl-3H-pyrido[4,3-d]pyrimidin-4-one] | 11000
11 | O=c1c2c(OC3CCC3)nccc2nc(-c2ccccc2O)n1CCc1ccccc1 [Example 33, 5-Cyclobutyloxy-2-(2-hydroxy-phenyl)-3-phenethyl-3H-pyrido[4,3-d]pyrimidin-4-one] | 520
12 | O=c1c2c(-c3ccccc3)nccc2nc(-c2ccccc2O)n1CCc1ccccc1 [Example 24, 2-(2-Hydroxy-phenyl)-3-phenethyl-5-phenyl-3H-pyrido[4,3-d]pyrimidin-4-one] | 2600
13 | O=c1c2c(C(F)(F)F)nccc2nc(-c2cscn2)n1CCC1CCCCC1 [Example 61, 3-(2-cyclohexylethyl)-2-(thiazol-4-yl)-5-(trifluoromethyl)pyrido[4,3-d]pyrimidin-4(3H)-one] | 500
14 | Cc1cc2nc(-c3ccccc3O)n(CCc3ccccc3)c(=O)c2c(C(F)(F)F)n1 [Example 10, 2-(2-Hydroxy-phenyl)-7-methyl-3-(phenyl-ethyl)-5-trifluoromethyl-3H-pyrido[4,3-d]pyrimidin-4-one] | 120
15 | O=c1c2c(C(F)(F)F)nccc2nc(-c2ncccc2O)n1CCC1CCCCC1 [Example 47, 3-(2-cyclohexylethyl)-2-(3-hydroxypyridin-2-yl)-5-(trifluoromethyl)pyrido[4,3-d]pyrimidin-4(3H)-one] | 60
16 | O=c1c2c(C(F)(F)F)nccc2nc(-c2cccc(F)c2O)n1CCc1cccc(F)c1 [Example 11, 2-(3-Fluoro-2-hydroxy-phenyl)-3-[2-(3-fluoro-phenyl)-ethyl]-5-trifluoromethyl-3H-pyrido[4,3-d]pyrimidin-4-one] | 460
17 | Cc1nccc2nc(-c3ccccc3O)n(CCc3ccccc3)c(=O)c12 [Example 26, 2-(2-Hydroxy-phenyl)-5-methyl-3-phenethyl-3H-pyrido[4,3-d]pyrimidi-4-one] | 2990
18 | COc1ccccc1CCn1c(-c2cscn2)nc2ccnc(C(F)(F)F)c2c1=O [Example 60, 3-(2-methoxyphenethyl)-2-(thiazol-4-yl)-5-(trifluoromethyl)pyrido[4,3-d]pyrimidin-4(3H)-one] | 23200

Continued, values first:

Row | IC50 [nM] | Structure (SMILES)
19 | 36200 | CC(C)CCn1c(-c2ncccc2O)nc2ccnc(C(F)(F)F)c2c1=O [Example 66, 2-(3-hydroxypyridin-2-yl)-3-isopentyl-5-(trifluoromethyl)pyrido[4,3-d]pyrimidin-4(3H)-one]
20 | 940 | O=C(Nc1cccnc1-c1nc2ccnc(C(F)(F)F)c2c(=O)n1CCc1ccccc1F)C(F)(F)F [Example 72, N-(2-(3-(2-fluorophenethyl)-4-oxo-5-(trifluoromethyl)-3,4-dihydropyrido[4,3-d]pyrimidin-2-yl)pyridin-3-yl)-2,2,2-trifluoroacetamide]
21 | 720 | COc1ccccc1CCn1c(-c2ccccc2O)nc2ccnc(C(F)(F)F)c2c1=O [Example 55, 3-(2-methoxyphenethyl)-2-(2-hydroxyphenyl)-5-(trifluoromethyl)pyrido[4,3-d]pyrimidin-4(3H)-one]
22 | 460 | O=c1c2c(C(F)(F)F)nccc2nc(-c2ncccc2O)n1CCc1cccc(F)c1F [Example 40, 3-(2,3-difluorophenethyl)-2-(3-hydroxypyridin-2-yl)-5-(trifluoromethyl)pyrido[4,3-d]pyrimidin-4(3H)-one]
23 | 1870 | COc1c(F)cccc1CCn1c(-c2ncccc2O)nc2ccnc(C(F)(F)F)c2c1=O [Example 45, 3-(3-fluoro-2-methoxyphenethyl)-2-(3-hydroxypyridin-2-yl)-5-(trifluoromethyl)pyrido[4,3-d]pyrimidin-4(3H)-one]
24 | 70 | O=c1c2c(C(F)(F)F)nccc2nc(-c2ncccc2O)n1CCc1ccc(F)c(F)c1 [Example 13, 3-[2-(3,4-Difluoro-phenyl)-ethyl]-2-(3-hydroxy-pyridin-2-yl)-5-trifluoromethyl-3H-pyrido[4,3-d]pyrimidin-4-one]
25 | 66900 | COc1ccc(F)c(CCn2c(-c3ncccc3O)nc3ccnc(C(F)(F)F)c3c2=O)c1 [Example 69, 3-(2-fluoro-5-methoxyphenethyl)-2-(3-hydroxypyridin-2-yl)-5-(trifluoromethyl)pyrido[4,3-d]pyrimidin-4(3H)-one]
26 | 1120 | COc1cccc(F)c1CCn1c(-c2ncccc2O)nc2ccnc(C(F)(F)F)c2c1=O [Example 42, 3-(2-fluoro-6-methoxyphenethyl)-2-(3-hydroxypyridin-2-yl)-5-(trifluoromethyl)pyrido[4,3-d]pyrimidin-4(3H)-one]
27 | 50 | CC(Cc1ccccc1F)n1c(-c2ncccc2O)nc2ccnc(C(F)(F)F)c2c1=O (racemic) [Example 6, (R, S)-2-(3-Hydroxy-pyridin-2-yl)-3-(1-methyl-2-(2-fluorophenyl)ethyl)-5-trifluoromethyl-3H-pyrido[4,3-d]pyrimidin-4-one]
28 | 1540 | O=c1c2c(C(F)(F)F)nccc2nc(-c2cscn2)n1CCc1ccccc1F [Example 56, 3-(2-fluorophenethyl)-2-(thiazol-4-yl)-5-(trifluoromethyl)pyrido[4,3-d]pyrimidin-4(3H)-one]
